In ChEMBL document CHEMBL5604063, “ASAP - DENV-2 NS2B-NS3 protease fluorescence dose response” (2024):
Several values for one entry are separate records, joined by “and”; a condition that tells them apart may be missing. Identical values can stand only once.

Experiments:
Genome polyprotein [1] = molecular target: T1, Genome polyprotein (dengue virus type 2, UniProt P29990); assay type: functional, Thailand/16681/1984
Genome polyprotein [2] = molecular target: T1, Genome polyprotein; assay type: functional, Thailand/16681/1984; remark: listed apart in the source

T1 sequence (P29990 1346-1475 limits assumed): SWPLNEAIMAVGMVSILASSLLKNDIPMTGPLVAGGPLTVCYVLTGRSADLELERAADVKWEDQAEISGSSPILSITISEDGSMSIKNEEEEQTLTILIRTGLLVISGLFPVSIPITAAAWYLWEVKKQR
T1 sequence (P29990 1476-2093 limits assumed): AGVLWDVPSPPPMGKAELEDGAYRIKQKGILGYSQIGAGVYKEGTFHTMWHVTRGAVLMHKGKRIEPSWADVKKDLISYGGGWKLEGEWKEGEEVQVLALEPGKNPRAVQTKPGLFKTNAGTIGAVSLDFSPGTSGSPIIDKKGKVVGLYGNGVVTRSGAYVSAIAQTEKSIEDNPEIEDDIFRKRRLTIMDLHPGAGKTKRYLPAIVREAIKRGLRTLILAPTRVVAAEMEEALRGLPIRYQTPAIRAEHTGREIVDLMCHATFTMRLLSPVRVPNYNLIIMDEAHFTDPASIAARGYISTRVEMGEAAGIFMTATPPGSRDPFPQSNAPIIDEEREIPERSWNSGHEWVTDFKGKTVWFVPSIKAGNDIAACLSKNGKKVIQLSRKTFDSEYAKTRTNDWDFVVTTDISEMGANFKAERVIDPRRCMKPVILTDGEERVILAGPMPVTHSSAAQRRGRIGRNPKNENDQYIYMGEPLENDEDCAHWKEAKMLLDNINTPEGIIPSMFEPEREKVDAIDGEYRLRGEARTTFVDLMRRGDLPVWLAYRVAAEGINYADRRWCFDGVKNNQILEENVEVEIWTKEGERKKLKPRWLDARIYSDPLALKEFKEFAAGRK

Row | SMILES | IC50 (Genome polyprotein [1]) | IC50 (Genome polyprotein [2])
1 | O=C(Nc1ccc2c(c1)CNC2)c1cc(Br)cc2[nH]c(-c3ccccc3)nc12 | 2.73 µM and 2.34 µM | 5.95 µM and 6.13 µM
2 | O=C(O)c1nc(Cc2c[nH]c3ccc(Cl)cc23)c2ccccn12 | > 99.5 µM | > 100 µM
3 | Cc1cc(CC(=O)O)ccc1Cc1c[nH]c2ccc(Cl)cc12 | > 99.5 µM | > 100 µM
4 | O=C(Nc1ccc2c(c1)CNC2)c1ccnc(CO)c1 | > 99.5 µM | > 100 µM
5 | Cc1c(C(=O)Nc2cc(C(=O)N(C)C)ccn2)cc(C2CC2)n1C | > 99.5 µM | > 100 µM
6 | NCc1cc(NC(=O)c2cc(Cl)cc(NC(=O)OCc3ccccc3)c2)cc(-c2cccc(CC(=O)O)c2)c1 | > 99.5 µM | > 100 µM
7 | O=C(Nc1ccc([C@H]2CCNC2)cc1)c1cc(Cl)cc2[nH]ncc12 | 87.8 µM | 97.3 µM
8 | C=CC[C@H](Nc1ccc2c(c1)CNC2)c1cc(Cl)cc2[nH]ncc12 | 14 µM and 53.1 µM | > 100 µM
9 | O=C(Nc1ccc2c(c1)CNC2)c1cccnc1 | > 99.5 µM | > 100 µM
10 | O=C(O)c1cc2cc(-c3cccc([C@H]4COCCN4)c3)ccc2[nH]1 | > 99.5 µM | > 100 µM
11 | CC(C)c1cc(Br)cc(C(=O)Nc2ccc3c(c2)CNC3)c1 | > 99.5 µM | > 100 µM
12 | O=C(O)c1cc2cc(-c3cc(Cl)c4[nH]c(=O)oc4c3)ccc2[nH]1 | 47.3 µM | 63.2 µM
13 | O=C(Nc1ccc2c(c1)CNC2)c1cccc2[nH]ncc12 | > 99.5 µM | > 100 µM
14 | N[C@H]1CC[C@H](c2ccc(NC(=O)c3cc(Cl)cc4[nH]ncc34)cc2)C1 | > 99.5 µM | > 100 µM
15 | CNC(=O)[C@]1(Nc2ccc3c(c2)CNC3)C(=O)Nc2ccccc21 | > 99.5 µM | > 100 µM
16 | Cc1ccc(C(C)C)c(C(=O)Nc2ccc3c(c2)CNC3)c1 | > 99.5 µM | > 100 µM
17 | O=C(Nc1ccc2c(c1)CNC2)c1cc(Br)cc2c1OCO2 | > 99.5 µM | > 100 µM
18 | O=C(O)COc1cc2c(cc1Cc1c[nH]c3ccc(Cl)cc13)OCO2 | > 99.5 µM | 89 µM
19 | NCCCc1ccnc(NC(=O)c2csc(C3CC3)n2)c1 | > 99.5 µM | > 100 µM
20 | O=C(O)c1nccn2ncc(Cc3c[nH]c4ccc(Cl)cc34)c12 | > 99.5 µM | > 100 µM
21 | Cc1ccc(-c2cc(CN)cc([C@@H]3C[C@H]3c3cc(Cl)cc(NC(=O)OCc4ccccc4)c3)c2)cn1 | 31.5 µM | > 100 µM
22 | O=C(Nc1ccc2c(c1)CNC2)[C@H]1CCc2ccccc21 | > 99.5 µM | > 100 µM

Row | SMILES | IC50 (Genome polyprotein [1]) | IC50 (Genome polyprotein [2])
23 | O=C(Nc1ccc2c(c1)CNC2)c1ccncc1 | > 99.5 µM | > 100 µM
24 | COC(=O)c1cc(Br)cc2c(Cc3ccc(-c4nnn[nH]4)cc3)c[nH]c12 | 20.3 µM | 13.6 µM
25 | O=C1Cc2cc(NC(=O)c3cc(Cl)cc4[nH]ncc34)ccc2N1 | > 99.5 µM | > 100 µM
26 | O=C(Nc1ccc2c(c1)OCO2)c1cc(Cl)cc2[nH]ncc12 | > 99.5 µM | > 100 µM
27 | Cc1c(C(=O)O)sc2ncc(Cc3c[nH]c4ccc(Cl)cc34)cc12 | 46.7 µM | 25.3 µM
28 | O=C(Nc1ccc(C2CNC2)cc1)c1cc(Cl)cc2[nH]ncc12 | > 99.5 µM | > 100 µM
29 | CNC(=O)[C@]1(Nc2ccc3c(c2)CNC3)CCc2ccc(Cl)cc21 | > 99.5 µM | > 100 µM
30 | CCc1nc2c(C(=O)Nc3ccc4c(c3)CNC4)cc(Br)cc2[nH]1 | 24.7 µM | 25.4 µM and > 100 µM
31 | Clc1ccc2nc(C3CCOCC3)n(Cc3ccc4c(c3)CNC4)c2c1 | > 99.5 µM | > 100 µM
32 | CC(C)c1nc2cc(Cl)ccc2n1Cc1ccc(-c2nn[nH]n2)cc1 | > 99.5 µM | > 100 µM
33 | Nc1ccc(NC(=O)c2cc(Cl)cc3[nH]ncc23)cn1 | > 99.5 µM | > 100 µM
34 | O=C(Nc1ccc2c(c1)C[C@H](O)C2)c1cc(Cl)cc2[nH]ncc12 | > 99.5 µM | > 100 µM
35 | CNc1c(-c2cc(Cl)cc(C3CC3)c2)nc2cc(C(=O)O)ccn12 | > 99.5 µM | > 100 µM
36 | O=C(O)c1nn(-c2ccccc2)cc1Cc1c[nH]c2ccc(Cl)cc12 | 56.5 µM | 61 µM
37 | Cc1c(C(=O)Nc2cc(C#N)c3ccccc3n2)cc(C2CC2)n1C | > 99.5 µM | > 100 µM
38 | O=C(Nc1cc(Cl)cc(-c2cc(NCc3ccccc3)c(C(=O)O)cn2)c1)OCc1ccccc1 | 7.58 µM | 5.35 µM
39 | N#Cc1cccc(C[C@H](O)c2cc(Cl)cc(NC(=O)OCc3ccccc3)c2)c1 | > 99.5 µM | > 100 µM
40 | O=C(Nc1ccc(C2CCNCC2)cc1)c1cc(Cl)cc2[nH]ncc12 | > 99.5 µM | > 100 µM
41 | Cc1cc(-c2ccc3[nH]c(C(=O)O)cc3c2)c2cc[nH]c(=O)c2c1 | > 99.5 µM | > 100 µM
42 | Cn1cc(-c2cc(CN)cc([C@@H]3C[C@H]3c3cc(Cl)cc(NC(=O)OCc4ccccc4)c3)c2)cn1 | 42 µM | 51 µM
43 | Cc1oc(C2CC2)nc1C(=O)Nc1cc(CCCN)ccn1 | > 99.5 µM | > 100 µM
